Columns and labels:
[1] = test system: CCO18CD colon fibroblasts stimulated with TGF-β; test: High throughput microscopy-based anti-fibrotic drug screen (α-SMA and collagen 1 expression); assay type: cell-based
Excerpt: FIG. 1 is images of cells from high throughput microscopy-based analysis of an FDA-approved drug library for potential anti-fibrotic properties.
FIGS. 3A-3C are images of cells from high throughput microscopy-based analysis of potential drugs for anti-fibrotic properties.

[2] = test system: key fibrosis genes (ACTA2, COL1A1, COL3A1, TGFBR1) in transplanted intestinal tissue; test: Subcutaneous intestinal transplant fibrosis model, qPCR of fibrosis genes; assay type: in vivo; conditions: mouse; one subcutaneous injection 15 mg/kg; one week after implantation; versus oral pirfenidone 100 mg/kg three times daily
Excerpt: A 1-2 cm segment of bowel was excised from one mouse and implanted in the subcutaneous space on the neck of another mouse of the same genetic background. […] One week after tissue implantation and initiation of treatment, the segment of transplanted intestine tissue was excised to assess expression of key genes involved in fibrosis (α-SMA, ACTA2; collagen type 1, COL1A1; collagen type 3, COL3A1; TGF-β receptor 1, TGFBR1) by qPCR.

[3] = test system: intestinal fibroblast cells; test: Cell survival in the microscopy-based screen; conditions: at effective concentrations
[4] = mouse, in vivo, sc, 50 mg/kg

Compound | concentration causing reduction in α-SMA and collagen production ([1]; TGF-β stimulated colon fibroblasts) | concentration level at which induced expression of α-SMA and/or collagen was reduced (in words) ([1]; TGF-β stimulated intestinal fibroblasts) | repression of fibrosis genes (ACTA2, COL1A1, COL3A1, TGFBR1) [2] | impact on cell survival [3] | mortality [4]
Cc1ccc(=O)n(-c2ccccc2)c1 [pirfenidone] | 4 mM | millimolar concentrations | – | – | –
Clc1ccc(CSC(Cn2ccnc2)c2ccc(Cl)cc2Cl)cc1 (centres unmarked) [sulconazole, 1-[2-[(4-chlorophenyl)methylsulfanyl]-2-(2,4-dichlorophenyl)ethyl]imidazole] | – | – | significantly more effective than pirfenidone | minimal impact on cell survival | death of mice

Source: patent US20240226067A9, “ANTI-FIBROTIC THERAPIES” (THE JOHNS HOPKINS UNIVERSITY, priority 2021, published 2024)
